Assay results: ChEMBL document CHEMBL1201862, “PubChem BioAssay data set” (2004)
Activity calls are given as the source filed them.

How the values were obtained:
[1] = target: G-protein coupled receptor 55 (Homo sapiens, UniProt Q9Y2T6); assay: GPR55 antagonists blocking LPI-driven arrestin recruitment, primary screen, imaging, U2OS, beta-arrestin-GFP, LPI agonist (AID 2013); type: functional;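 note: antagonist potency measured as reduced agonist-driven arrestin aggregation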
[2] = tested on: Saccharomyces cerevisiae; assay: NALP1 inhibitor project selectivity study, Caspase-1/ASC signal blockade IC50 in S. cerevisiae (AID 488863); type: functional, organism-based
[3] = target: NACHT, LRR and PYD domains-containing protein 1 (Homo sapiens, UniProt Q9C000); assay: NALP1 inhibitors in yeast, dose response, luminescent (AID 488860); type: functional
[4] = Luminescence Cell-Based Dose Response HTS to Identify Inhibitors of 5'UTR Stem-Loop Driven Prion Protein mRNA Translation in H4 Neuroglioblastoma Cells. [Related pubchem assays: 1827 (Project Summary), 1813 (Primary HTS)]; type: functional
[5] = Shn3 3'UTR reporter inhibitors, dose response, cell-based, Clone20 osteoblasts, firefly luciferase, cherry-picked (AID 624132); type: functional;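 note: firefly luciferase luminescence from reporter carrying the Shn3 3'UTR in osteoblasts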
[6] = inhibitors of SNCA 5'UTR-driven reporter translation, confirmation, H4 neuroglioma cells, luminescence (AID 1988); type: functional, cell-based
[7] = HepG2 cell cytotoxicity, dose response, cytotoxicity control for non-replicating M. tuberculosis project (AID 489018); type: functional; conditions: Mycobacterium tuberculosis
[8] = cells; type: functional
[9] = Vero E6 cell cytotoxicity, dose response, cytotoxicity control for non-replicating M. tuberculosis project, secondary assay (AID 492998); type: functional, VeroE6; conditions: Vero C1008
[10] = HepG2 cell cytotoxicity, dose response, cytotoxicity control for Shn3 inhibitor project, CellTiter-Glo, cherry-picked (AID 624134); type: functional, cell-based
[11] = THP-1 cell cytotoxicity, dose response, cytotoxicity control for non-replicating M. tuberculosis project (AID 489025); type: functional
[12] = inhibitors of firefly luciferase expression or activity, dose response, H4 neuroglioma cells, luminescence (AID 1990); type: functional, cell-based
[13] = control 3'UTR Renilla luciferase suppression, dose response, counter-screen for Shn3 inhibitor project, cell-based, Clone20-Shn3RL, cherry-picked (AID 624133); type: functional
[14] = target: DNA damage-inducible transcript 3 protein (Mus musculus, UniProt P35639); type: functional, Cricetulus griseus
Sequence of DNA damage-inducible transcript 3 protein (P35639 whole entry): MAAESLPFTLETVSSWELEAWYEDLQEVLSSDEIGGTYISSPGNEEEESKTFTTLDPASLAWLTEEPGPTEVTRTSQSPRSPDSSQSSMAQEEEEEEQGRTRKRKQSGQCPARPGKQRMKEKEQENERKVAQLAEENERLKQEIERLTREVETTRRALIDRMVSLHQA

[15] = target: T1, Kappa-type opioid receptor (Homo sapiens, UniProt P41145); type: functional
T1 sequence (P41145 whole entry): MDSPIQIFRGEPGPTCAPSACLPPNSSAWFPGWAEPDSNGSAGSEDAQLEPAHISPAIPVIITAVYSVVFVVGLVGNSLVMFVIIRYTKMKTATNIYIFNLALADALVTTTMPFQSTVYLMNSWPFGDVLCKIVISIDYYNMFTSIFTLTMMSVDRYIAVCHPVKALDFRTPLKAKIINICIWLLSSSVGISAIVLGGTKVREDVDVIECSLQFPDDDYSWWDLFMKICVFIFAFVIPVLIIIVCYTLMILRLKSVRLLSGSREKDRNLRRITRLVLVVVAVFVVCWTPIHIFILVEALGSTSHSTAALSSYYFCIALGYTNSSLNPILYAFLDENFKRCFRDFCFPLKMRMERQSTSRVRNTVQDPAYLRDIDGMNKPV

[16] = target: T2, Delta-type opioid receptor (Homo sapiens, UniProt P41143); assay: HTS Image-Based Screen for Antagonists of the DOR Receptor. [Related pubchem assays (depositor defined):AID1777, AID1785, AID1786, AID2133]; type: functional
T2 sequence (P41143 whole entry): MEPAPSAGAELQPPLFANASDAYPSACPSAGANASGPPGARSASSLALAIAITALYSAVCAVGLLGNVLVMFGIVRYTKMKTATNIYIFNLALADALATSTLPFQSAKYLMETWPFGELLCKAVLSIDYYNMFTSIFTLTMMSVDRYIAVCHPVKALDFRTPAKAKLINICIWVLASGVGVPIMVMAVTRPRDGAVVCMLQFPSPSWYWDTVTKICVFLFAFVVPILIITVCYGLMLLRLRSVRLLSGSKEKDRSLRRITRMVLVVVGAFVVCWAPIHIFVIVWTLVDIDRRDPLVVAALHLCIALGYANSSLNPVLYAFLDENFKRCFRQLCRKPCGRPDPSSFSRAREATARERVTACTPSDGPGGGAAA

[17] = target: T3, Beta-galactosidase (Escherichia coli, UniProt Q8VNN2); type: functional
T3 sequence (Q8VNN2 whole entry): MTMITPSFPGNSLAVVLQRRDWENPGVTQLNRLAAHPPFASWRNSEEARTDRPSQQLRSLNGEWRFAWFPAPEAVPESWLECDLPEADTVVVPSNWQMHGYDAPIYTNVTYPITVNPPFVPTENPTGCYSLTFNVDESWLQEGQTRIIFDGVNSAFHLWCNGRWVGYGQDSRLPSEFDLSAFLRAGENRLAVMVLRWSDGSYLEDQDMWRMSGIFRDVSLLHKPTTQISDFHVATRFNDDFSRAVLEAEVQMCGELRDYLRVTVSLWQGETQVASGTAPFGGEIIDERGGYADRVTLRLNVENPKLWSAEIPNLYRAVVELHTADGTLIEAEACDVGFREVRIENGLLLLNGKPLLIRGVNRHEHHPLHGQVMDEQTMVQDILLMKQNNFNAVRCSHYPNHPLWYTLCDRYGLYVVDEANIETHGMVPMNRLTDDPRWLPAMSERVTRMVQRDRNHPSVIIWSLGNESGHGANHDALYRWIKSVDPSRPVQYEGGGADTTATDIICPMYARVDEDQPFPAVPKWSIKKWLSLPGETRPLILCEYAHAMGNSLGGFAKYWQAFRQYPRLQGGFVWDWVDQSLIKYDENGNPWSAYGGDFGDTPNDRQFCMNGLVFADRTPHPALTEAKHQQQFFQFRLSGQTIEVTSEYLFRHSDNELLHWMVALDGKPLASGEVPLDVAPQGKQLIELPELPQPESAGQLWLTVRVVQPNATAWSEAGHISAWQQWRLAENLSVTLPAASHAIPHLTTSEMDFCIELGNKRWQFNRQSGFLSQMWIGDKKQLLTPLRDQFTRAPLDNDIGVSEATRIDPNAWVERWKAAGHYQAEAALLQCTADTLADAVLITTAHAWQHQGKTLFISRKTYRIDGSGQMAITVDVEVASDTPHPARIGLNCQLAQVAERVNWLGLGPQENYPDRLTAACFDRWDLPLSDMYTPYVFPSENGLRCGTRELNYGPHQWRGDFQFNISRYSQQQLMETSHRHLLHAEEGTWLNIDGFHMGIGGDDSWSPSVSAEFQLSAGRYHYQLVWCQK

[18] = target: Mu-type opioid receptor (Homo sapiens, UniProt P35372); assay: HTS Image-Based Screen for Agonists of the MOR Receptor. [Related pubchem assays (depositor defined):AID1777, AID1785, AID1786, AID2133]; type: functional;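 note: imaging of beta-arrestin GFP recruitment into spots after receptor activation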
Sequence of Mu-type opioid receptor (P35372 whole entry): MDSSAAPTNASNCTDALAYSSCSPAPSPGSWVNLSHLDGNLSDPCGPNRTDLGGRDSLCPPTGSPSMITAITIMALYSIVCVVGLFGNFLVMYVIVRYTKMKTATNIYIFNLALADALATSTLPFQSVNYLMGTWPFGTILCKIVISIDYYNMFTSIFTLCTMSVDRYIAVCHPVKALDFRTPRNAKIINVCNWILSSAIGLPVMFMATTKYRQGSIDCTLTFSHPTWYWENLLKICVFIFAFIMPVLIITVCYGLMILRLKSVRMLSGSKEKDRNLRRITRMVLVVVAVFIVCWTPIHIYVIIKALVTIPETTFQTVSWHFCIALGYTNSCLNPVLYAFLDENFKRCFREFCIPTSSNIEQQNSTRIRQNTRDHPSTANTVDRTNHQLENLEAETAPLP

[19] = target: T1, Kappa-type opioid receptor; type: functional; remark: listed apart in the source
[20] = target: T2, Delta-type opioid receptor; assay: HTS Image-Based Screen for Agonists of the DOR Receptor. [Related pubchem assays (depositor defined):AID1777, AID1786, AID2133]; type: functional
[21] = target: Glucose-6-phosphate 1-dehydrogenase (Homo sapiens, UniProt P11413); assay: human G6PD enzyme inhibitors, dose response, selectivity assay for P. falciparum G6PD inhibitor project, biochemical, fluorescence (AID 504792); type: functional
Sequence of Glucose-6-phosphate 1-dehydrogenase (P11413 whole entry): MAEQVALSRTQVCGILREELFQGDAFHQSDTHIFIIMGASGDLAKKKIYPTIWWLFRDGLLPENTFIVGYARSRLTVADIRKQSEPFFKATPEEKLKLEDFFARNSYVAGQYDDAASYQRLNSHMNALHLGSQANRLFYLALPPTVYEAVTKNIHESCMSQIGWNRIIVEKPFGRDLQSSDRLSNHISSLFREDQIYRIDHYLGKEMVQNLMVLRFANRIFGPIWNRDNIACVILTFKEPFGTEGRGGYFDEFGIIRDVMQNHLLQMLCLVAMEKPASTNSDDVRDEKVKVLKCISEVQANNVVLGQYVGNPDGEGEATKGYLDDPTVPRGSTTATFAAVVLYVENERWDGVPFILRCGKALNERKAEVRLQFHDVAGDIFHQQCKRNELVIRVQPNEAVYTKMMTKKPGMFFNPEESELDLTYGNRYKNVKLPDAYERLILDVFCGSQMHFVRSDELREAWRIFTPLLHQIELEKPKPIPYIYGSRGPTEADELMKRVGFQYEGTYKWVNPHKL

[22] = cytotoxicity toward NIH3T3 fibroblasts, dose response, counter-screen, cell-based, ATP luminescence, mouse fibroblasts (AID 2010); type: functional;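 note: cells exposed to compound for about 90 hours before reading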
[23] = inhibitors of intracellular T. cruzi replication, confirmation, NIH3T3 host cells, beta-gal luminescence (AID 2044); type: functional, cell-based;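 note: intracellular parasites grown in NIH/3T3 mouse fibroblasts as host cells; luminescent beta-galactosidase reporter signal from transgenic T. cruzi replicating inside host cells; inhibitors lower the luminescence signal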
[24] = target: T4, E3 ubiquitin-protein ligase XIAP (Homo sapiens, UniProt P98170); assay: Counter Screen using XIAP-Bir3 for Chemical Antagonists of Bir1/2 domains of IAP-family anti-apoptotic proteins. [Related pubchem assays (depositor defined):AID1018, AID1449, AID1514, AID1638, AID1749, AID1750, AID488957, AID488963]
T4 sequence (P98170 whole entry): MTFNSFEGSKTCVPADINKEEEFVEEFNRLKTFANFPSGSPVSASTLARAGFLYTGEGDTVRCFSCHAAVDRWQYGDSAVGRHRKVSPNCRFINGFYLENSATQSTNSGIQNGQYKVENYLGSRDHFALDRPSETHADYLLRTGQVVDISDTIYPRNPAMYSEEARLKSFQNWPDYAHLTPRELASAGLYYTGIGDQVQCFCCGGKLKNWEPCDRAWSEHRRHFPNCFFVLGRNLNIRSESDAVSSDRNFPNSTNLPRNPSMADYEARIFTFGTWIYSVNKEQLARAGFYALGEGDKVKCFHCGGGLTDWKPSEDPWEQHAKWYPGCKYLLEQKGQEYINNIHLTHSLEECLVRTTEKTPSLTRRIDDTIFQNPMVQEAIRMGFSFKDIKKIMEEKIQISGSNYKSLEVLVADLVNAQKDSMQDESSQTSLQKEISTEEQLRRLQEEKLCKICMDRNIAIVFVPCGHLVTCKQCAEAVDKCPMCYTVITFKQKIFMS

[25] = target: T4, E3 ubiquitin-protein ligase XIAP; assay: XIAP antagonists, biochemical, IAP family, fluorescence polarization (AID 1018); type: functional
[26] = target: T5, Alkaline phosphatase, tissue-nonspecific isozyme (Homo sapiens, UniProt P05186); assay: human TNAP enzyme inhibitors, SAR follow-up, biochemical, luminescent, dose response (AID 1056)
T5 sequence (P05186 whole entry): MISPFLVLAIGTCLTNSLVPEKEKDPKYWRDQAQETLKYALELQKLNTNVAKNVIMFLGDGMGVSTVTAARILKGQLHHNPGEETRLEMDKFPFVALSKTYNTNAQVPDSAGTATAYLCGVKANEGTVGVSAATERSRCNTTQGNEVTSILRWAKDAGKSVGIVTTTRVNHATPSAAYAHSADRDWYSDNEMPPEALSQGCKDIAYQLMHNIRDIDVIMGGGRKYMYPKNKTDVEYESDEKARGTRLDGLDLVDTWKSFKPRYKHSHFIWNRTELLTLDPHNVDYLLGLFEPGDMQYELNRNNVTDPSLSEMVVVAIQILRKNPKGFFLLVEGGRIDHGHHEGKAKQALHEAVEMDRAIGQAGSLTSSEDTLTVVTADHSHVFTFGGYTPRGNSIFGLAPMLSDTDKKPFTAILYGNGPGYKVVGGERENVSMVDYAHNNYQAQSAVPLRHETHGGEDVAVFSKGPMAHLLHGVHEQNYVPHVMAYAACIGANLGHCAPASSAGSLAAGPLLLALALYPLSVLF

[27] = target: Alkaline phosphatase, placental type (Homo sapiens, UniProt P05187); assay: PLAP enzyme inhibitors, confirmation, biochemical, luminescence (AID 1512); type: functional
Sequence of Alkaline phosphatase, placental type (P05187 whole entry): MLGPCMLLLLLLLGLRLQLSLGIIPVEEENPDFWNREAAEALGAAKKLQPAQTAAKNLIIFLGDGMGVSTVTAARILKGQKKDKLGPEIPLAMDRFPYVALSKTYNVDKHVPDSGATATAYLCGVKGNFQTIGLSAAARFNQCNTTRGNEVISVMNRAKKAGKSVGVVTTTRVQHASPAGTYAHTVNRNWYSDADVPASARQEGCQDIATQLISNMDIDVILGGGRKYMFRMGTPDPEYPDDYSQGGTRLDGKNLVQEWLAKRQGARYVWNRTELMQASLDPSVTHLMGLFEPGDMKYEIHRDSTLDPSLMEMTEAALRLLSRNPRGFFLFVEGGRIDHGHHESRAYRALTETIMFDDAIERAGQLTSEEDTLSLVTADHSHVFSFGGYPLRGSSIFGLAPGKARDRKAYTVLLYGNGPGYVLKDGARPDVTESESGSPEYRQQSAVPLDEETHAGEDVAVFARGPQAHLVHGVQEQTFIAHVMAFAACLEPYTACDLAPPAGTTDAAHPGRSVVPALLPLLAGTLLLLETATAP

[28] = target: Glyceraldehyde-3-phosphate dehydrogenase (Homo sapiens, UniProt P04406)
Sequence of Glyceraldehyde-3-phosphate dehydrogenase (P04406 whole entry): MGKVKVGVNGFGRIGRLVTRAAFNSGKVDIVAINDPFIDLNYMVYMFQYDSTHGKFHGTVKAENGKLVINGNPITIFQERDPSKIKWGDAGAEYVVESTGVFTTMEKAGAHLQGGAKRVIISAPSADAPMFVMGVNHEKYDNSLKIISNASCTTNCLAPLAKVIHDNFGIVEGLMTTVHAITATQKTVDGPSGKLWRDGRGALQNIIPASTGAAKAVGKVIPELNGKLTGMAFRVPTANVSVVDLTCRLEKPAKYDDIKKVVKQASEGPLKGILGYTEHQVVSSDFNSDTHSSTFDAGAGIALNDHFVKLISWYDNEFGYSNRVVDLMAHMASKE

[29] = tested on: INS1; assay: beta cell apoptosis inhibitors, cytokine rescue, dose response, luminescence, retest (AID 449756); type: functional, cell-based; conditions: Rattus norvegicus;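 note: cell death triggered by IL-1 beta plus TNF-alpha plus IFN-gamma mixture; protective hits raise ATP signal compared with cytokine alone wells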
[30] = tested on: Streptococcus; assay: Group A Streptococcus viability loss, dose response, counter-screen for streptokinase expression inhibitor project, luminescence, BacTiterGlo (AID 1915); type: functional, organism-based;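 note: potency for reduction of bacterial viability or growth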
[31] = target: Heat shock protein HSP 90-alpha (Homo sapiens, UniProt P07900); type: functional, organism-based
[32] = C. albicans growth with fluconazole, confirmation, fluorescence, retest (AID 2467); type: functional, cell-based
[33] = tested on: Streptococcus sp. 'group A'; assay: growth inhibition of control SK(-) GAS strain, dose response, counter-screen for streptokinase expression inhibitor project, luminescence, kanamycin, BacTiterGlo, confirmation (AID 1900); type: functional, organism-based
[34] = target: T6, Heat shock factor protein 1 (Mus musculus, UniProt P38532); assay: HSF1 potentiators in luciferase reporter cells, confirmation, cell-based, NIH3T3, luminescence, dose retest (AID 435004); type: functional;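 note: stress induced by proteasome inhibitor MG132 added 30 min after compound; luciferase reporter driven by HSF1 response element in NIH3T3 cells; actives raise luminescence as potentiators of the MG132 stress response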
T6 sequence (P38532 whole entry): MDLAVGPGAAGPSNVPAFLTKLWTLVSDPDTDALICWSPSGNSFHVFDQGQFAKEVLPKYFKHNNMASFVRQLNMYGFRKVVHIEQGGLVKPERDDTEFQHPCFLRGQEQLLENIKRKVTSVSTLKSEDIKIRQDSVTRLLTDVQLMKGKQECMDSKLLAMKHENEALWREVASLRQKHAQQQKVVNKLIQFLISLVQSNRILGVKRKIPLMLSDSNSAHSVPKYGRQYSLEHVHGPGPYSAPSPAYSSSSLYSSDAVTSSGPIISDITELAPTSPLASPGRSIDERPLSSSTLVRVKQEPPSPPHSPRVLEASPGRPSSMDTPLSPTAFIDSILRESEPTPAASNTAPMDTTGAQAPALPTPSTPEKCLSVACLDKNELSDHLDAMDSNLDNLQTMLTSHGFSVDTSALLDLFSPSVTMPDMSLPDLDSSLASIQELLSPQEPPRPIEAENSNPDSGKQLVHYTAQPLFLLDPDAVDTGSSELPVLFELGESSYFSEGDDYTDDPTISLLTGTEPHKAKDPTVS

[35] = NIH-3T3 fibroblast cytotoxicity, dose response, cytotoxicity control, cell-based, fluorescence, Alamar Blue, secondary assay (AID 2327); type: functional;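 note: NIH-3T3 mouse fibroblasts cultured with fluconazole at 8 µg/mL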
[36] = target: T3, Beta-galactosidase; assay: PubChem AID 485352; type: functional
[37] = tested on: Vero; assay: cells; type: functional; conditions: Chlorocebus sabaeus
[38] = target: T7, Streptokinase A (Streptococcus pyogenes serotype M1, UniProt P10520); assay: S. pyogenes streptokinase expression inhibitors, potency, dose response, plasminogen activation absorbance, OD405 (AID 1914); type: functional, Streptococcus pyogenes M1 GAS;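 note: secreted streptokinase activity via plasminogen activation per viability signal from cell pellet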
T7 sequence (P10520 whole entry): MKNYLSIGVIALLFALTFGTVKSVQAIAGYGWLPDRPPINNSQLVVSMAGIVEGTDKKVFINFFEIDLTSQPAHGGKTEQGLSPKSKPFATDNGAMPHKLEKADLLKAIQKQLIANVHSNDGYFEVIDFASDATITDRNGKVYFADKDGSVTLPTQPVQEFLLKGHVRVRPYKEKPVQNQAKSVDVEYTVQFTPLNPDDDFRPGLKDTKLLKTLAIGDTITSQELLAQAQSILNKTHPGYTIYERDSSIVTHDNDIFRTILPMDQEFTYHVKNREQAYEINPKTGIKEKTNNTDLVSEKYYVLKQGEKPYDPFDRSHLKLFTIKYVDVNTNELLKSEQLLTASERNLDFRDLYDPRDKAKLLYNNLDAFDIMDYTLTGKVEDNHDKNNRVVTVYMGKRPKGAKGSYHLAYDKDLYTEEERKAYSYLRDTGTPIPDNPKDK

[39] = target: Nonstructural protein 1 (Influenza A virus, UniProt Q194T2); type: functional, Influenza A virus (A/California/07/2009(H1N1))
Sequence of Nonstructural protein 1 (Q194T2 whole entry): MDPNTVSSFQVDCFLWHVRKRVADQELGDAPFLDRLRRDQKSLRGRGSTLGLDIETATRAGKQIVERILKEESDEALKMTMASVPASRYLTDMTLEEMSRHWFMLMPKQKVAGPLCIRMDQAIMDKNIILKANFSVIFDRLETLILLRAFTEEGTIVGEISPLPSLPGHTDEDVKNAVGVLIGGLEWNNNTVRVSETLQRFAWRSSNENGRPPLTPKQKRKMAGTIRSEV

[40] = target: T8, Type-1 angiotensin II receptor (Homo sapiens, UniProt P30556); assay: AT1 receptor antagonists, dose response, selectivity assay for APJ receptor antagonist project, cell-based, uHTS hits (AID 463214); type: functional;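 note: antagonist potency against angiotensin II stimulated AT1 response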
T8 sequence (P30556 whole entry): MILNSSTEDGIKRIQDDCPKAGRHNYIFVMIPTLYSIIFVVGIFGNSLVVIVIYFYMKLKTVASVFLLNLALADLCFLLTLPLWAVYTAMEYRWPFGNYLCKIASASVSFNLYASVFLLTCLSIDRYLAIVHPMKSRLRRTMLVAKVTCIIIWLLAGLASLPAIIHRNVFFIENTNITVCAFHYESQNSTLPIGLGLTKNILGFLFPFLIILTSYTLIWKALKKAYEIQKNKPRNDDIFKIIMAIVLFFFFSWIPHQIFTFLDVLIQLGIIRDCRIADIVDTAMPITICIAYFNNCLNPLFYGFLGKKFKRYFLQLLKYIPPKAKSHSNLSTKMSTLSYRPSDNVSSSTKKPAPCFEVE

Sequence of G-protein coupled receptor 55 (Q9Y2T6 whole entry): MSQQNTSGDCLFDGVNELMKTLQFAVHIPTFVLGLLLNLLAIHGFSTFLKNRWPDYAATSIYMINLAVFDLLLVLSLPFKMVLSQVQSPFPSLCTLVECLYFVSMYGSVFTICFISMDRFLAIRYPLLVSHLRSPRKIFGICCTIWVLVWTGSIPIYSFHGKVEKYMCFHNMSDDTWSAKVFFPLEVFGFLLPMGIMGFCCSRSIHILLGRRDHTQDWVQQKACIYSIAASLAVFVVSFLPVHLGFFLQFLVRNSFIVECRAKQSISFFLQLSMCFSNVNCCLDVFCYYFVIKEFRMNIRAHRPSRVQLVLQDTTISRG

O=C(O)c1ccc(Cl)c(S(=O)(=O)Nc2ccc(OCc3ccccc3)cc2)c1
IC50 [1]: 4.05 µM (active)

CC(C)NC(=O)CCCOc1ccc(Cl)cc1Cl
IC50 [2]: 35.8 µM (active)
IC50 [3]: 40 µM (active)

CCOc1cccc(CNCCc2c(C)[nH]c3ccc(OC(F)(F)F)cc23)c1O
EC50 [4]: 17.2 µM (active)
AC50 [5]: 0.611 µM (active)
EC50 [6]: 11.2 µM (active)
CC50 [7]: 5.75 µM (active)
IC50 [8]: 10.5 µM (active)
CC50 [9]: 9.94 µM (active)
AC50 [10]: 8.24 µM (active)
CC50 [11]: 6.17 µM (active)
EC50 [12]: > 120 µM (not active)
AC50 [13]: 18.1 µM (active)

COc1ccc(CNc2oc(-c3cccc4ccccc34)nc2C#N)cc1
Absolute IC50 (CHOP) [14]: 10 µM

CC1CCc2c(nc3sc4c(c3c2N)CCCC4)C1 (configuration not stated)
IC50 [15]: 2.2 µM (active)
IC50 [16]: > 32 µM (inactive)
EC50 [17]: > 31.5 µM (inactive)
EC50 [18]: > 32 µM (inactive)
IC50 [19]: > 32 µM
EC50 [20]: > 32 µM (inactive)
IC50 [21]: > 80 µM (inactive)

O=C(NNc1ccccc1[N+](=O)[O-])Nc1ccc(Cl)c(Cl)c1
Absolute IC50 (CHOP) [14]: 10 µM

COc1ccc(-c2nnc(NC(=O)c3ccc(S(=O)(=O)N4COCC4(C)C)cc3)o2)cc1
EC50 [22]: 7.83 µM (active)
CC50 [7]: 8.49 µM (active)
IC50 [8]: 6.25 µM (active)
CC50 [9]: 6.01 µM (active)
CC50 [11]: 7.22 µM (active)
EC50 [23]: 2.09 µM (active)

CCCS(=O)(=O)N1CCN(C(=O)c2ccc(-c3ccccc3)cc2)CC1
IC50 [24]: > 100 µM (inactive)
IC50 [25]: > 100 µM (not active)

COc1ccc(CCc2nc(N)nn2-c2ccccc2)cc1OC
IC50 [26]: > 100 µM (inactive)
IC50 [27]: > 100 µM (inactive)
IC50 [28]: > 100 µM (not active)

CC1CN(S(=O)(=O)c2cccc(C(=O)Nc3ccc(S(=O)(=O)Nc4ncccn4)cc3)c2)CC(C)O1 (configuration not stated)
IC50 [24]: > 100 µM (inactive)
IC50 [25]: > 100 µM (not active)

Oc1cc(CSc2ccc(Cl)cc2)nc(-c2ccccn2)n1
IC50 [15]: 4.86 µM (active)
AC50 [29]: 2.74 µM (active)
EC50 [22]: 5.92 µM (active)
IC50 [16]: > 32 µM (inactive)
EC50 [30]: 6.82 µM (active)
AC50 [31]: 23.3 µM (active)
EC50 [32]: 0.1 µM (active)
EC50 [17]: > 31.5 µM (inactive)
EC50 [18]: > 32 µM (inactive)
EC50 [33]: 0.489 µM (active)
EC50 [34]: 5.93 µM (active)
EC50 [35]: 9.84 µM (active)
IC50 [19]: > 32 µM
EC50 [20]: > 32 µM (inactive)
EC50 [36]: > 40 µM (inactive)
CC50 [37]: 5.82 µM (active)
EC50 [38]: > 150 µM (not active)
IC50 [39]: 14.4 µM (active)
IC50 [40]: 13 µM (active)
EC50 [23]: 0.549 µM (active)

CCn1c(SCC(=O)c2ccc(O)c(O)c2)nnc1-c1ccc(Cl)cc1
IC50 [26]: > 100 µM (inactive)
IC50 [27]: 8.76 µM (active)
